This is an account of results in US5322944A, “Process for the synthesis of enantiomers of 3-aminochroman compounds” (Adir et Compagnie, priority 1991, dated 1994).

The target in one test is T1, 5HT1 A receptors (Homo sapiens, UniProt P08908).
T1 sequence (P08908 1-422): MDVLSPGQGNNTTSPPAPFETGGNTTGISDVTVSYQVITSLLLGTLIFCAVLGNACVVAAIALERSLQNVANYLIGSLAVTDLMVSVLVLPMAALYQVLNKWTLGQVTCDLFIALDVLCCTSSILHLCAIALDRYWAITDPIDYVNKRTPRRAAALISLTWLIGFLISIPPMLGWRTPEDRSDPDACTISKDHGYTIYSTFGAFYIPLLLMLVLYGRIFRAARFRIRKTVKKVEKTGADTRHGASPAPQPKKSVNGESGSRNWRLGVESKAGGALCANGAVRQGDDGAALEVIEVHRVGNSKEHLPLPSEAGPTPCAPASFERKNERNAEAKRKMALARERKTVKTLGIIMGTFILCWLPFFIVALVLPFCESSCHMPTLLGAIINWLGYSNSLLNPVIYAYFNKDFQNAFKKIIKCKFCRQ
As to the kind of experiment: conventional binding techniques, 5HT1 A receptors. Conditions: for Ki: affinity expressed as K 0.5 (Ki) for the 5HT1 A receptors, conventional binding techniques, called K 0.5 for the (+) isomer, Ki for the (-) isomer; for selectivity (5HT1 A versus D2 receptors): ratio of D2 to 5HT1 A affinity constants. An excerpt: (§1) If conventional binding techniques are used, the affinity of the (+) isomer of the compound of formula (II), expressed as K 0.5, is 2×10^-10for the 5HT1 A receptors and 2×10^-8 for the D2 receptors, which is equivalent to a selectivity of the order of 100.

The target in another test is D2 receptors (Homo sapiens, UniProt P14416). Briefly: conventional binding techniques, D2 receptors. Conditions: called K 0.5 for the (+) isomer, read-out: affinity expressed as K 0.5 (Ki) for the D2 receptors.
D2 receptors, sequence (P14416 whole entry): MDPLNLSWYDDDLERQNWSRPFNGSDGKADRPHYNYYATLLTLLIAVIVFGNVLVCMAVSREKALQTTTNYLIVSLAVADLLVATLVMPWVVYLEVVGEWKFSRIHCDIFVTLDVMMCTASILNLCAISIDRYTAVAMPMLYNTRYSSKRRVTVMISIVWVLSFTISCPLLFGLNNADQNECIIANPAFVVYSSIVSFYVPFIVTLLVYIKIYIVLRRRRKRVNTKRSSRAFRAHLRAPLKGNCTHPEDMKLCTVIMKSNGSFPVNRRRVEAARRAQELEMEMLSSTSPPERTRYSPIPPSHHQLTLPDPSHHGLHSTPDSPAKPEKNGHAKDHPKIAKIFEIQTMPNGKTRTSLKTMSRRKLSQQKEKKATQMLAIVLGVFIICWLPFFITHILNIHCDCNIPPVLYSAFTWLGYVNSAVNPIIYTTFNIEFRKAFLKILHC
Description: as §1

For the molecule `CCCN(CCCCN1C(=O)CC2(CCCC2)CC1=O)C1COc2cccc(OC)c2C1` (single isomer, unassigned; (+)) [(+) isomer of the compound of formula (II)], the “affinity for the 5HT1 A receptors relative to that of the (-) isomer” value on 5HT1 A receptors ((+) isomer compared with (-) isomer) is given as “about 10 times”. At 5HT1 A receptors ((+) isomer compared with (-) isomer, 5HT1 A versus D2), the “specificity relative to the (-) isomer” value is 20 times. On 5HT1 A receptors, the Ki is 0.2 nM and the “selectivity (5HT1 A versus D2 receptors)” value is listed as about 100. Besides, on D2 receptors, the Ki stood at 20 nM.

As for `CCCN(CCCCN1C(=O)CC2(CCCC2)CC1=O)C1COc2cccc(OC)c2C1` (single isomer, unassigned; (-)) [(-) isomer], the inhibitory constant (Ki) came to 2 nM at 5HT1 A receptors and 10 nM on D2 receptors. Also, on 5HT1 A receptors, the “selectivity (5HT1 A versus D2 receptors)” value is given as about 5.

A word on the Ki: it is a dissociation constant, usually derived from enzyme kinetics or from competition with a known ligand.
